Data set [1] deals with 965 human primary brain tumor cells. The data set is described as follows: Cytotoxicity dose-response, SRB assay, 965. The note with it: 965 primary cells, 72 h incubation per FIG. 16 legend. In kind it is cell-based. Here is the method:
(§1) FIGS. 16A-16B depict the cytotoxicity evaluation of PTX-buSS-FFFRGDR (SEQ ID NO: 1), PTX-buSS-VVVRGDR (SEQ ID NO: 2), and C16-FFFRGDR (SEQ ID NO: 1) against U87 human glioblastoma cells (A) and 965 human primary brain tumor cells (B). Cells were incubated with the PTX or conjugates for 48 h (U87) or 72 h (965) and cell viability was determined by SRB assay. Data are given as mean±s.d. (n=3).
(§2) U87 human glioblastoma cells were provided by Prof. Denis Wirtz's lab (Department of Chemical and Biomolecular Engineering, Johns Hopkins University). Primary human brain cancer cell line 965 was provided by Prof. Alfredo Quinones-Hinojosa of the Johns Hopkins Medical School. All cell lines were cultured according to providers' protocols. U87 human glioblastoma cells were grown in DMEM with 10% FBS and 1% antibiotics. Primary human brain cancer cell line 965 was grown in DEME/F12 with 2% Neuroplex, 1% antibiotics, 20 ng/mL hEGF and 20 ng/mL hFGF.
(§3) The cytotoxicity assays of PTX-FFFRGDR (SEQ ID NO: 1), PTX-VVVRGDR (SEQ ID NO: 2), C16-FFFRGDR (SEQ ID NO: 1) were determined using a dose-response study. A 96-well plate was seeded with cell sat a density of 5×10^3 cells/well and incubated at 37° C. for 24 h. The cells were then treated with varying concentrations of paclitaxel or conjugate in cell medium and incubated for a further 48 h (U87) or 72 h (primary cell lines). Cell viability was determined by sulforhodamine-B (SRB, Sigma Aldrich) assay according to the manufacturer's protocol. The data was fitted using the Hill equation function within the Igor Pro program and used to obtain the IC50 value.
(§4) The in vitro cytotoxicity of PTX-buSS-FFFRGDR (SEQ ID NO: 1) was assessed an compared to that of free PTX, PTX-buSS-VVVRGDR (SEQ ID NO: 2) and C16-FFFRGDR (SEQ ID NO: 1) against two brain tumor cell lines, including U87 human glioblastoma cell line and 965 primary human brain tumor cell line (FIG. 16). Cells were incubated for 48 h with varying drug concentrations and cell viability was determined using sulforhodamine B (SRB) assay. […]
(In general: Sulforhodamine B stains cellular protein and so reports cell mass.)

In data set [2] the test system is U87 human glioblastoma cells. Description: Cytotoxicity dose-response, SRB assay, U87. In kind it is cell-based. To be noted: U87, 48 h incubation. Here is the method:
as §1, §2, §3, §4

For data set [3], the system named is U87 human glioblastoma cells. The data set is described as follows: Hydrogel drug release and cytotoxicity, live/dead cell staining. In kind it is cell-based. To be noted: U87, 24 h incubation with hydrogel, near-gel region 1 and peripheral region 2. As to the method: FIGS. 17A-17F show the in vitro drug release and cytotoxicity study of PTX-buSS-FFFRGDR (SEQ ID NO: 1), PTX-buSS-VVVRGDR (SEQ ID NO: 2), and C16-FFFRGDR (SEQ ID NO: 1) hydrogels against U87 human glioblastoma cells. Live/dead assay cell images after 24 h of incubation with blank culture media (A and D), PTX-buSS-FFFRGDR (SEQ ID NO: 1) (B and E), or C16-FFFRGDR (SEQ ID NO: 1) (C and F).
The in vitro drug release and cytotoxicity of PTX-buSS-FFFRGDR (SEQ ID NO: 1) was assessed and compared to that of C16-FFFRGDR (SEQ ID NO: 1) blank hydrogel against U87 human glioblastoma cells (FIG. 17). Cells were incubated for 24 h with PTX-loaded and PTX-free hydro-gels and cell viability was determined using live/dead cell staining method. Two sections along gradient decaying radius were taken to compare cell viability after treatment with different hydrogels.

Data set [4] is described as follows: Paclitaxel release study in PBS buffer with or without GSH. In kind it is physicochemical. The note with it: 37° C., 50 μM, presence or absence of 10 mM GSH. As to the method: FIGS. 15A-15D illustrate fluorescence measurements to determine the CMC value of PTX-buSS-FFFRGDR (SEQ ID NO: 1) (A) and PTX-buSS-VVVRGDR (SEQ ID NO: 2) (B) based on Nile Red encapsulation within the assembled nanostructures. Representative CD spectra (solid lines) and UV-vis spectra (dash lines) of 200 μM PTX-buSS-FFFRGDR (SEQ ID NO: 1), 200 μM PTX-buSS-VVVRGDR (SEQ ID NO: 2) and 200 μM. C16-FFFRGDR (SEQ ID NO: 1) (C). Paclitaxel release study of PTX-buSS-FFFRGDR (SEQ ID NO: 1) and PTX-buSS-VVVRGDR (SEQ ID NO: 2) in PBS buffer at 37° C. at 50 μM. Solutions were incubated in the presence or absence of 10 mM GSH. Data are given as mean±s.d. (n=3).
Since the release of the active compound is critical and tunable by altering nanofilaments morphologies, experiments to determine PTX release were carried out in PBS buffer at 37° C. in the presence or absence of 10 mM GSH (FIG. 15D).

The nature of data set [5]: Cumulative release of drug from CPT-HKD hydrogel. In kind it is physicochemical.
Experimental: (§5) (C) Cumulative release of drug from the hydrogel formed by CPT-HKD (1.2 wt %) over one month. […] (D) Cell viability of primary glioma cells derived from three patients treated by CPT-HKD of varying concentrations.
(§6) CPT-HKD was incubated with primary glioma cells derived from three patients to determine cytotoxicity (FIG. 18D).
Data set [6] is described as follows: Hydrogel formation of CPT-HKD nanofibers in DPBS. In kind it is physicochemical.
Experimental: as §5, §6
Data set [7] relates to primary glioma cells derived from three patients. The note with it: varying concentrations.
Experimental: as §5, §6
Data set [8] concerns implanted tumors. Description: In vivo brain tumor resection model.
Text: A) A cranial window (5 mm) was made at the same location of tumor implantation, and the tumor was resected with microscissors. A droplet of CPT nanofiber solution was placed in the resected area, forming hydrogels upon delivery. A methacrylate membrane was used to cover the skull defect.
A droplet of CPT-HKD nanofiber solution was placed in the resected area, forming hydrogels upon delivery. A methacrylate membrane was used to cover the skull defect.
Using the in vivo brain tumor resection model described above, mice with implanted tumors were treated with resection of the tumor alone or resection and addition of CPT-HKD hydrogel and the tumor site was subjected to BLI analysis at 1 and 2 weeks post-resection.
Using the in vivo brain tumor resection model described above, mice with implanted tumors were treated with resection of the tumor alone or resection and addition of CPT-HKD hydrogel for 1 month. After the test period, mouse brains were removed and sectioned in 10 μm thick sections and stained using H&E methods. Tumor area was determined by stereological analysis of consecutive 10 μm thick sections. p value was calculated by Mann-Whitney U (p=0.037).

Non-standard residues stand in square brackets, D forms with d. Residues, ends and D or L forms follow the SMILES beside them. No end group written: not given here. ξ: configuration not given here. *: point of attachment. Paclitaxel(2'-OCO(CH2)3S) = CC(=O)O[C@H]1C(=O)[C@@]2(C)[C@H]([C@H](OC(=O)c3ccccc3)[C@]3(O)C[C@H](OC(=O)[C@H](OC(=O)CCCS*)[C@@H](NC(=O)c4ccccc4)c4ccccc4)C(C)=C1C3(C)C)[C@]1(OC(C)=O)CO[C@@H]1C[C@@H]2O; Palmitoyl = CCCCCCCCCCCCCCCC(=O)*; ξV = CC(C)C(N)C(=O)O

As for `CCCCCCCCCCCCCCCC(=O)N[C@@H](Cc1ccccc1)C(=O)N[C@@H](Cc1ccccc1)C(=O)N[C@@H](Cc1ccccc1)C(=O)N[C@@H](CCCNC(=N)N)C(=O)NCC(=O)N[C@@H](CC(=O)O)C(=O)N[C@@H](CCCNC(=N)N)C(=O)O` [C16-FFFRGDR] (Palmitoyl-FFFRGDR-OH), the “in vitro cytotoxicity (cell viability)” value in data set [1] and in data set [2] was “didn't show any significant toxicity” throughout. The “cell viability by live/dead staining around the hydrogel” value in data set [3] is reported as “non-toxicity against U87 cells in both regions”.
For the molecule `CC(=O)N[C@@H](CSSCCCC(=O)O[C@@H](C(=O)O[C@H]1C[C@@]2(O)[C@@H](OC(=O)c3ccccc3)[C@@H]3[C@]4(OC(C)=O)CO[C@@H]4C[C@H](O)[C@@]3(C)C(=O)[C@H](OC(C)=O)C(=C1C)C2(C)C)[C@@H](NC(=O)c1ccccc1)c1ccccc1)C(=O)N[C@@H](Cc1ccccc1)C(=O)N[C@@H](Cc1ccccc1)C(=O)N[C@@H](Cc1ccccc1)C(=O)N[C@@H](CCCNC(=N)N)C(=O)NCC(=O)N[C@@H](CC(=O)O)C(=O)N[C@@H](CCCNC(=N)N)C(=O)O` [PTX-buSS-FFFRGDR] (Ac-C(Paclitaxel(2'-OCO(CH2)3S))FFFRGDR-OH), the “in vitro cytotoxicity (cell viability)” value in data set [1] and in data set [2] was “near-identical toxicity to free PTX” in each case.
For `CC(=O)N[C@@H](CSSCCCC(=O)O[C@@H](C(=O)O[C@H]1C[C@@]2(O)[C@@H](OC(=O)c3ccccc3)[C@@H]3[C@]4(OC(C)=O)CO[C@@H]4C[C@H](O)[C@@]3(C)C(=O)[C@H](OC(C)=O)C(=C1C)C2(C)C)[C@@H](NC(=O)c1ccccc1)c1ccccc1)C(=O)NCC(=O)N[C@H](C(=O)NC(C(=O)N[C@H](C(=O)N[C@@H](CCCNC(=N)N)C(=O)NCC(=O)N[C@@H](CC(=O)O)C(=O)N[C@@H](CCCNC(=N)N)C(=O)O)C(C)C)C(C)C)C(C)C` (stereo partly shown) [PTX-buSS-VVVRGDR] (Ac-C(Paclitaxel(2'-OCO(CH2)3S))GV[ξV]VRGDR-OH), the “PTX release rate, with GSH versus without” value in data set [4] is given as “faster release rates under GSH conditions”. For the same molecule, the “in vitro cytotoxicity (cell viability)” value in data set [1] and in data set [2] was “near-identical toxicity to free PTX” throughout.
With “CPT-HKD (GVVQQHKD; also: camptothecin conjugated via buSS linker, site not given here)”, in data set [5] (after one month), the hydrogel shape retention entry is “retained its shape after one month”. Moreover, the “cumulative release of drug from the hydrogel” value in data set [5] (hydrogel 1.2 wt %, over one month) is “about 15 % of total bound drug”. Further, the “concentration at which nanofibers form a hydrogel” value in data set [6] is reported as “higher than 0.4 wt %”. In addition, the “cytotoxicity (cell viability)” value in data set [7] is reported as “dose dependent cytotoxicity shown in all three cell lines”. The “BLI signal intensity versus resection only group” value in data set [8] (1 and 2 weeks post-resection, p=0.0076) is recorded as “significant lower intensity”. The “difference in survival versus resection only group” value in data set [8] (Kaplan-Meier analysis, p=0.01) is listed as “extension of one-week”. Also, in data set [8] (after 1 month of treatment, stereological analysis of 10 μm sections, p=0.037), the “tumor area versus resection only group” value is listed as “Reduces Brain Tumor Area”. The “survival (Kaplan-Meier)” value in data set [8] (resection plus hydrogel, resection only 35 days, p=0.01) stood at 41 days.

Values taken from patent US11160875B2, “Therapeutic nanofiber hydrogels for local treatment of brain-related diseases” (THE JOHNS HOPKINS UNIVERSITY, priority 2015, dated 2021).
